Numbers after ± are expanded uncertainties.
Conditions: for surface tension liquid-gas: Drop weight; for mass density: 101.33 kPa, Liquid

| Structure (SMILES) | surface tension liquid-gas (293.15 K) | mass density (293.15 K) | surface tension liquid-gas (298.15 K) | mass density (298.15 K) | surface tension liquid-gas (303.15 K) | mass density (303.15 K) | surface tension liquid-gas (308.15 K) | mass density (308.15 K) | surface tension liquid-gas (313.15 K) | mass density (313.15 K) | surface tension liquid-gas (318.15 K) | mass density (318.15 K) | surface tension liquid-gas (323.15 K) | mass density (323.15 K) | surface tension liquid-gas (328.15 K) | mass density (328.15 K) | surface tension liquid-gas (333.15 K) | mass density (333.15 K) | surface tension liquid-gas (338.15 K) | mass density (338.15 K) | further results |
| --- | --- | --- | --- | --- | --- | --- | --- | --- | --- | --- | --- | --- | --- | --- | --- | --- | --- | --- | --- | --- | --- |
| C[n+]1ccn(CCCN)c1.F[B-](F)(F)F [1-(3-aminopropyl)-3-methyl-1H-imidazolium tetrafluoroborate] | 47.2 ± 0.5 mN/m | 1358.01 ± 1.8 kg/m3 | 47.1 ± 0.5 mN/m | 1354.6 ± 1.7 kg/m3 | 46.4 ± 0.5 mN/m | 1349.29 ± 1.7 kg/m3 | 46.2 ± 0.5 mN/m | 1345.68 ± 1.7 kg/m3 | 46.1 ± 0.5 mN/m | 1343.18 ± 1.7 kg/m3 | 45.4 ± 0.5 mN/m | 1336.97 ± 1.7 kg/m3 | 45.2 ± 0.5 mN/m | 1333.57 ± 1.7 kg/m3 | 44.8 ± 0.5 mN/m | 1328.96 ± 1.6 kg/m3 | 44.6 ± 0.5 mN/m | 1325.35 ± 1.6 kg/m3 | 44.1 ± 0.5 mN/m | 1321.05 ± 1.6 kg/m3 | surface tension liquid-gas (343.15 K): 43.8 ± 0.5 mN/m; mass density (343.15 K): 1317.25 ± 1.6 kg/m3; surface tension liquid-gas (348.15 K): 43.4 ± 0.5 mN/m; mass density (348.15 K): 1313.04 ± 1.6 kg/m3; surface tension liquid-gas (353.15 K): 43.1 ± 0.5 mN/m; mass density (353.15 K): 1309.44 ± 1.6 kg/m3 |
| Cn1cc[n+](CCN)c1.F[B-](F)(F)F [3-(2-aminoethyl)-1-methyl-1H-imidazolium tetrafluoroborate] | 53.8 ± 0.5 mN/m | 1427.12 ± 2 kg/m3 | 53.5 ± 0.5 mN/m | 1422.31 ± 2 kg/m3 | 53.2 ± 0.5 mN/m | 1418.96 ± 2 kg/m3 | 52.4 ± 0.5 mN/m | 1413.23 ± 2 kg/m3 | 52 ± 0.5 mN/m | 1409.18 ± 1.9 kg/m3 | 51.5 ± 0.5 mN/m | 1404.69 ± 1.9 kg/m3 | 51.3 ± 0.5 mN/m | 1401.78 ± 1.9 kg/m3 | 50.8 ± 0.5 mN/m | 1395.42 ± 1.9 kg/m3 | 50.3 ± 0.5 mN/m | 1391.77 ± 1.9 kg/m3 | 50.2 ± 0.5 mN/m | 1388.54 ± 1.9 kg/m3 | surface tension liquid-gas (343.15 K): 49.8 ± 0.5 mN/m; mass density (343.15 K): 1384.79 ± 1.9 kg/m3; surface tension liquid-gas (348.15 K): 49.4 ± 0.5 mN/m; mass density (348.15 K): 1380.94 ± 1.9 kg/m3; surface tension liquid-gas (353.15 K): 48.8 ± 0.5 mN/m; mass density (353.15 K): 1375.11 ± 1.8 kg/m3 |
